“And” between values parts separate entries of the source, which are not always exact repeats. Equal values may be shown once. Marks after values point to notes of the source that are not given here.
Experiments:
native whole blood = experiment: Accelerated whole blood clotting time (AWBCT), native blood; assay type: cell-based
Method: (§1) Whilst native blood is tested immediately after collection, for example, within two minutes, citrated blood may be stored for a longer period, before being recalcified immediately before the test is conducted. The interval between blood collection and testing may be on the order of one hour. It should be noted that shorter collection intervals give more reliable results.
(§2) The test is performed on native freshly drawn venous blood, or recalcified citrated blood or heparinised blood.
(§3) 100 μL of saline control or a range of concentration of a platelet agonists are added to the wells of a coagulometer and then 200 μL of native or RCCWB whole blood added and the coagulation time recorded. The potential agonists are; collagen, ADP, adrenalin, platelet activating factor, thrombin. It is anticipated that the agonist appropriate for specific roles will emerge in the course of clinical studies.
(§4) Numbers are the time to coagulation in seconds. The results given are the averages of duplicates, unless otherwise indicated by an asterix, (corresponding to single coagulation times where spurious results have not been averaged).

[1] = tested on: recalcified citrated whole blood; experiment: Accelerated whole blood clotting time (AWBCT), recalcified citrated whole blood (RCCWB); assay type: cell-based
Method: Comparison of the results using native blood and citrated blood was made. 9 parts of citrated blood was added to 1 part calcium n chloride 133 mM, mixed and aliquotes of the recalcified citrated blood added to the wells of the coagulometer containing duplicates of saline control and dilutions of collagen. A concentration of […] calcium chloride is considered to be optimal; but concentrations in the range of, for example, 110-140 mM may be used. However, it should be noted that the length and un-reliability of coagulation times increase with concentrations further from the optimum, especially with higher values.
as §1, §2, §3, §4

Nc1ncnc2c1ncn2[C@@H]1O[C@H](COP(=O)(O)OP(=O)(O)O)[C@@H](O)[C@H]1O [ADP, adenosine diphosphate] was tested, and the “time to coagulation (AWBCT)” value (native whole blood; ADP 6.25 μM) was 265 s, the “time to coagulation (AWBCT)” value (native whole blood; ADP 12.5 μM) was 269 s and the “time to coagulation (AWBCT)” value (native whole blood; ADP 25 μM) was 272 s. The “time to coagulation (AWBCT)” value (native whole blood; ADP 50 μM) was 255 s, the “time to coagulation (AWBCT)” value ([1]; recalcified whole blood, ADP 12.5 μM, collection interval +65 mins) was 329 s and the “time to coagulation (AWBCT)” value ([1]; recalcified whole blood, ADP 25 μM, collection interval +65 mins) was 358 s. For the same molecule, the “time to coagulation (AWBCT)” value ([1]; recalcified whole blood, ADP 50 μM, collection interval +65 mins) was 348 s and the “time to coagulation (AWBCT)” value ([1]; recalcified whole blood, ADP 100 μM, collection interval +65 mins) was 341 s.
With CC(=O)Oc1ccccc1C(=O)O [Aspirin] the “time to coagulation (AWBCT)” value ([1]; RCCWB, aspirin 40 μg/ml, collagen 0.125 mg/ml, collection interval +135 min) was 275 s, the “time to coagulation (AWBCT)” value ([1]; RCCWB, aspirin 40 μg/ml, collagen 0.25 mg/ml, collection interval +135 min) was 274 s and the “time to coagulation (AWBCT)” value ([1]; RCCWB, aspirin 40 μg/ml, collagen 0.5 mg/ml, collection interval +135 min) was 216 s. The “time to coagulation (AWBCT)” value ([1]; RCCWB, aspirin 40 μg/ml, collagen 1.0 mg/ml, collection interval +135 min) was 184 s, the “time to coagulation (AWBCT)” value ([1]; RCCWB, aspirin 40 μg/ml, saline, collection interval +135 min) was 500 s and the “time to coagulation (AWBCT)” value ([1]; RCCWB, aspirin 80 μg/ml, collagen 0.125 mg/ml, collection interval +106 min) was 224 s. The “time to coagulation (AWBCT)” value ([1]; RCCWB, aspirin 80 μg/ml, collagen 0.25 mg/ml, collection interval +106 min) was 236 s, the “time to coagulation (AWBCT)” value ([1]; RCCWB, aspirin 80 μg/ml, collagen 0.5 mg/ml, collection interval +106 min) was 218* seconds and the “time to coagulation (AWBCT)” value ([1]; RCCWB, aspirin 80 μg/ml, collagen 1.0 mg/ml, collection interval +106 min) was 212 s. The “time to coagulation (AWBCT)” value ([1]; RCCWB, aspirin 80 μg/ml, saline, collection interval +106 min) was 468 s.
Heparin was tested, and the “time to coagulation (AWBCT)” value ([1]; RCCWB + Heparin 1.25 u/ml, collagen 0.125 mg/ml) was 325* seconds, the “time to coagulation (AWBCT)” value ([1]; RCCWB + Heparin 1.25 u/ml, collagen 0.25 mg/ml) was 302 s and the “time to coagulation (AWBCT)” value ([1]; RCCWB + Heparin 1.25 u/ml, collagen 0.5 mg/ml) was 71 s. For the same molecule, the “time to coagulation (AWBCT)” value ([1]; RCCWB + Heparin 1.25 u/ml, collagen 1.0 mg/ml) was 54 s, the “time to coagulation (AWBCT)” value ([1]; RCCWB + Heparin 1.25 u/ml, saline) was 500+ seconds and the “time to coagulation (AWBCT)” value ([1]; RCCWB + Heparin 2.5 u/ml, collagen 0.125 mg/ml) was 340 s. For the same molecule, the “time to coagulation (AWBCT)” value ([1]; RCCWB + Heparin 2.5 u/ml, collagen 0.25 mg/ml) was 405 s, the “time to coagulation (AWBCT)” value ([1]; RCCWB + Heparin 2.5 u/ml, collagen 0.5 mg/ml) was 61 s and the “time to coagulation (AWBCT)” value ([1]; RCCWB + Heparin 2.5 u/ml, collagen 1.0 mg/ml) was 41 s. The “time to coagulation (AWBCT)” value ([1]; RCCWB + Heparin 2.5 u/ml, saline) was 600+ seconds, the “time to coagulation (AWBCT)” value ([1]; RCCWB, Heparin 5.0 u/ml, collagen 0.125 mg/ml) was 600+ seconds and the “time to coagulation (AWBCT)” value ([1]; RCCWB, Heparin 5.0 u/ml, collagen 0.25 mg/ml) was 600+ seconds. The “time to coagulation (AWBCT)” value ([1]; RCCWB, Heparin 5.0 u/ml, collagen 0.5 mg/ml) was 48 s, the “time to coagulation (AWBCT)” value ([1]; RCCWB, Heparin 5.0 u/ml, collagen 1.0 mg/ml) was 31 s and the “time to coagulation (AWBCT)” value ([1]; RCCWB, Heparin 5.0 u/ml, saline) was 600+ seconds. For the same molecule, the “time to coagulation (AWBCT)” value ([1]; RCCWB, Heparin 10 u/ml, collagen 0.125 mg/ml) was 600+ seconds, the “time to coagulation (AWBCT)” value ([1]; RCCWB, Heparin 10 u/ml, collagen 0.25 mg/ml) was 600+ seconds and the “time to coagulation (AWBCT)” value ([1]; RCCWB, Heparin 10 u/ml, collagen 0.5 mg/ml) was 34 s. The “time to coagulation (AWBCT)” value ([1]; RCCWB, Heparin 10 u/ml, collagen 1.0 mg/ml) was 27 s and the “time to coagulation (AWBCT)” value ([1]; RCCWB, Heparin 10 u/ml, saline) was 600+ seconds.
Low Molecular Weight Heparin [LMWH] was tested, and the “time to coagulation (AWBCT)” value (native whole blood; LMWH 0.25 u/ml, collagen 0.125 mg/ml) was 233 s, the “time to coagulation (AWBCT)” value (native whole blood; LMWH 0.25 u/ml, collagen 0.25 mg/ml) was 224 s and the “time to coagulation (AWBCT)” value (native whole blood; LMWH 0.25 u/ml, collagen 0.5 mg/ml) was 204* seconds. For the same molecule, the “time to coagulation (AWBCT)” value (native whole blood; LMWH 0.25 u/ml, collagen 1.0 mg/ml) was 64 s, the “time to coagulation (AWBCT)” value (native whole blood; LMWH 0.25 u/ml, saline) was 500+ seconds and the “time to coagulation (AWBCT)” value (native whole blood; LMWH 0.5 u/ml, collagen 0.125 mg/ml) was 226 s. The “time to coagulation (AWBCT)” value (native whole blood; LMWH 0.5 u/ml, collagen 0.25 mg/ml) was 228 s, the “time to coagulation (AWBCT)” value (native whole blood; LMWH 0.5 u/ml, collagen 0.5 mg/ml) was 41 s and the “time to coagulation (AWBCT)” value (native whole blood; LMWH 0.5 u/ml, collagen 1.0 mg/ml) was 46 s. For the same molecule, the “time to coagulation (AWBCT)” value (native whole blood; LMWH 0.5 u/ml, saline) was 500+ seconds, the “time to coagulation (AWBCT)” value (native whole blood; LMWH 1.0 u/ml, collagen 0.125 mg/ml) was 318 s and the “time to coagulation (AWBCT)” value (native whole blood; LMWH 1.0 u/ml, collagen 0.25 mg/ml) was 259 s. The “time to coagulation (AWBCT)” value (native whole blood; LMWH 1.0 u/ml, collagen 0.5 mg/ml) was 48* seconds, the “time to coagulation (AWBCT)” value (native whole blood; LMWH 1.0 u/ml, collagen 1.0 mg/ml) was 27* seconds and the “time to coagulation (AWBCT)” value (native whole blood; LMWH 1.0 u/ml, saline) was 500+ seconds. The “time to coagulation (AWBCT)” value (native whole blood; LMWH 2.0 u/ml, collagen 0.125 mg/ml) was 500+ seconds, the “time to coagulation (AWBCT)” value (native whole blood; LMWH 2.0 u/ml, collagen 0.25 mg/ml) was 500+ seconds and the “time to coagulation (AWBCT)” value (native whole blood; LMWH 2.0 u/ml, collagen 0.5 mg/ml) was 500+ seconds. The “time to coagulation (AWBCT)” value (native whole blood; LMWH 2.0 u/ml, collagen 1.0 mg/ml) was 295 s and the “time to coagulation (AWBCT)” value (native whole blood; LMWH 2.0 u/ml, saline) was 500+ seconds.
For collagen, the “time to coagulation (AWBCT)” value (native whole blood; collagen 0.125 mg/ml) was 178 s and 134 s and 140 s and 149 s, the “time to coagulation (AWBCT)” value (native whole blood; collagen 0.25 mg/ml) was 162 s and 111 s and 125 s and 137 s and the “time to coagulation (AWBCT)” value (native whole blood; collagen 1.0 mg/ml) was 34 seconds and 28* seconds and 24 seconds and 29 seconds. For the same molecule, the “time to coagulation (AWBCT)” value ([1]; RCCWB 50 mins later, collagen 0.125 mg/ml) was 190 s, the “time to coagulation (AWBCT)” value ([1]; RCCWB 50 mins later, collagen 0.25 mg/ml) was 184 s and the “time to coagulation (AWBCT)” value ([1]; RCCWB 50 mins later, collagen 0.5 mg/ml) was 181 s. The “time to coagulation (AWBCT)” value ([1]; RCCWB 50 mins later, collagen 1.0 mg/ml) was 55 s, the “time to coagulation (AWBCT)” value ([1]; RCCWB 75 mins later, collagen 0.125 mg/ml) was 202 s and the “time to coagulation (AWBCT)” value ([1]; RCCWB 75 mins later, collagen 0.25 mg/ml) was 209 s. The “time to coagulation (AWBCT)” value ([1]; RCCWB 75 mins later, collagen 0.5 mg/ml) was 70 s, the “time to coagulation (AWBCT)” value ([1]; RCCWB 75 mins later, collagen 1.0 mg/ml) was 50 s and the “time to coagulation (AWBCT)” value ([1]; RCCWB, collagen 0.125 mg/ml) was 166 s and 159 s and 177 s and 178 s. The “time to coagulation (AWBCT)” value ([1]; RCCWB, collagen 0.25 mg/ml) was 185 seconds and 151 seconds and 165 seconds and 161* seconds and the “time to coagulation (AWBCT)” value ([1]; RCCWB, collagen 1.0 mg/ml) was 44 s and 49 s and 39 s and 56 s.

Source: US6617166B2, “Measurement of accelerated whole blood clotting time” (Prophylaxis Limited, priority 1999, dated 2003)
